Data on three molecules can be found in patent publication US20040259135A1, “Biosynthetic labeling and separation of RNA” (priority 2003, published 2004).

The subject of series [1] is human foreskin fibroblast cells. Description: Growth of human foreskin fibroblast host cells in media containing 2,4-dithiouracil. The class given is cell-based. The following applies: 5 μM to 2 mM 2,4-dithiouracil, even at highest concentration (2 mM). The procedure: (§1) Methods and Results: Initial experiments assayed the growth of T gondii within human foreskin fibroblast cells in media containing a range of concentrations of 2,4-dithiouracil (5 μM to 2 mM). Equivalent numbers of parasites were used to infect host cells and the replication of the parasites in the different concentrations of 2,4-dithiouracil was monitored over time.

Series [2] addresses UPRT of the protozoan Toxoplasma gondii (Toxoplasma gondii, UniProt Q26998). To be noted: purified enzyme; 100 different compounds tested in previous studies; cited from earlier work.
The next series concerns Toxoplasma RNA. The series can be described thus: Incorporation of thiouracil into Toxoplasma RNA (HPDP-biotin labeling, northern blot probed with streptavidin-HRP). Format: cell-based, Toxoplasma gondii. To be noted: 6 hours. The procedure:
(§2) To test for the incorporation of thiouracil into RNA, wild type (WT) parasites and mutants that lack the UPRT enzyme (UPRT(−)) were used to infect human foreskin fibroblasts in culture after which, the normal medium was replaced with medium containing 2 mM 2,4-dithiouracil. Following growth in this medium for 6 hours, the infected cells were harvested and RNA prepared by standard methods using Trizol reagent from Gibco-BRL.
(§3) The resulting RNA was incubated with HPDP-biotin (EZ-Link Biotin-HPDP (N-(6-(Biotinamido)hexyl)-3′-(2′-pyridyidithio)-propionamide) from Pierce Biotechnology) which specifically reacts with free thiols which are normally not present in RNA. For both RNA samples (WT and UPRT(−)) 25 μg of RNA was incubated with 50 μl of a 1 mg/ml Biotin-HPDP solution and Tris HCl/EDTA buffer (pH 7.4) for 1.5 hours. Biotinylated RNA was precipitated from any excess biotin by isopropanol precipitation and centrifugation. Approximately 2.5 μg of this material was resolved by agarose gel electrophoresis and transferred to a nitrocellulose filter, all by standard procedures. The resulting filter was then probed with streptavidin conjugated to horseradish peroxidase (Streptavidin-HRP) and the bound material detected with chemiluminescence (using the ECL kit from Amersham). […] The upper-most major band is from the large subunit of the human ribosome.

For a further series, the system named is human RNA. Description: Incorporation of thiouracil into RNA of human foreskin fibroblast host cells (HPDP-biotin, streptavidin-HRP northern blot). The class given is cell-based. To be noted: Toxoplasma-infected human foreskin fibroblasts, 2 mM, 6 hours. The procedure: as §2, §3
The subject of the next series is HeLa cells. Description: Incorporation of thiouracil into RNA of HeLa cells with or without the Toxoplasma UPRT gene (northern blot). To be noted: 6 hours. The class given is cell-based, human. From the text:
Methods and Results: The coding region of the Toxoplasma UPRT gene was incorporated into the retroviral vector known as LNCX (Miller & Rosman (1989) BioTechniques 7:980-990), placing the UPRT gene under control of the cytomegalovirus immediate-early promoter. This construct was introduced into HeLa cells and cell lines that had stably incorporated the vector were selected using neomycin. Cells that survived this selection and non-transfected HeLa cells were both grown in the presence of 2,4-dithiouracil for 6 hours. RNA was isolated from these cells and labeled with HPDP-biotin as described above. Incorporation of thiouracil was detected by northern blot as described above.

For another series, the system named is T gondii. The series can be described thus: Growth of T gondii within human foreskin fibroblast cells in media containing 2,4-dithiouracil. To be noted: 5 μM to 2 mM 2,4-dithiouracil, even at highest concentration (2 mM); replication monitored over time. The class given is cell-based, Toxoplasma gondii. Here is the method: as §1

Chain of UPRT of the protozoan Toxoplasma gondii (Q26998 whole entry): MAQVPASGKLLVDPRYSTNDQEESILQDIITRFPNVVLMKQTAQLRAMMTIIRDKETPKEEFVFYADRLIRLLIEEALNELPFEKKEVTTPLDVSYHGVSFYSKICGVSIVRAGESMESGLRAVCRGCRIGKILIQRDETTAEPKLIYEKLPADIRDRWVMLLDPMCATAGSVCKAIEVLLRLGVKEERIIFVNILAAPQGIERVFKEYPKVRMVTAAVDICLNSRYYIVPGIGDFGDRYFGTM

With `Sc1ccnc(S)n1` [2,4-dithiouracil], in series [1], the “growth defects of the human cells” value is “No growth defects”. In series [2], the “substrate of purified UPRT (conversion into nucleoside monophosphate)” value (“substrate of purified UPRT” for short) is listed as “converted into UMP”. For the same molecule, the “incorporation of thiouracil into Toxoplasma RNA, UPRT dependence” value in the series on Toxoplasma RNA (WT versus mutants that lack the UPRT enzyme (UPRT(−)), 2 mM) is “only in parasites with the UPRT enzyme”. Further, in the series on Toxoplasma RNA (wild type parasites in human foreskin fibroblasts, 2 mM 2,4-dithiouracil), the “incorporation of thiouracil into Toxoplasma ribosomal RNA” value was “two of the three major bands detectable by ethidium staining of the RNA have thiouracil incorporated into them”. In the series on human RNA, the “incorporation into human RNA” value is given as “not incorporated”. Also, the “incorporation of thiouracil into RNA” value is listed as “good incorporation at a level similar to that seen with the parasites” in the series on HeLa cells (HeLa cells that had received the Toxoplasma UPRT gene) and “lack the ability to incorporate the thiouracil” with HeLa cells (normal (non-transfected) HeLa cells). Moreover, the “growth defects of the parasites” value with T gondii is “No growth defects”.

Take `O=c1[nH]cc(F)c(=O)[nH]1` [5-fluorouracil]: in series [2], the “substrate of purified UPRT” value is “known toxic substrates”.

With `O=c1c[n+]([O-])cc[nH]1` [emimycin], the “substrate of purified UPRT” value in series [2] is reported as “known toxic substrates”.
